Columns and labels:
Test in all cases: MIC determination, isogenic E. coli strains
Format in all cases: cell-based
[1] = system: Isogenic E. coli J58 strain carrying KPC-2; details: for MIC: Escherichia coli, 18 h, read-out: Mimimum Inhibitory Concentrations, KPC-2; for Mimimum Inhibitory Concentrations, KPC-2: isogenic E. coli strain, CAMH broth, 20 μM Apo-Transferrin, 37° C., 18 hours
Procedure: (§1) Sterile technique was used throughout these experiments. Suspensions of organisms were removed from storage (−80° C.) and partially thawed. Partially thawed organisms (1 μL) were inoculated into 3 mL sterile LB Broth in a sterile culture tube and capped, then cultured at 37° C. with shaking for 4-5 hours until the optical density at 600 nm (OD600) was greater than 0.1 on a single beam spectrophotometer.
(§2) The concentration of organisms was adjusted to 0.08-0.1 OD600 (0.5 McFarland units) by dilution with sterile cation-adjusted Meuller-Hinton (CAMH) broth. The suspensions were used within 30 minutes of preparation.
(§3) A stock solution was made of each test compound by measuring 6.4 mg of the compound on an analytical balance and dissolving it in DMSO (1 mL) to get a transparent solution. The solutions were stored at −20° C. and thawed prior to use.
(§4) Sterile CAMH broth (200 μL) containing 20 μM Apo-Transferrin was pipetted into the first row of 8 columns of a sterile, round-bottomed, transparent, 96-well microplate using an 8-channel pipette equipped with sterile tips. One hundred μL was pipetted into the wells of the remaining 11 rows.
(§5) With an 8-channel pipette equipped with sterile tips, 100 μL of the first row solution was transferred to the second row and mixed. The process was repeated for the second to third rows and continued through row 11. One hundred μL from row 11 was removed and discarded so that all 12 rows contained 100 μL. Row 12 contained no compound and rows 1-11 contained 64, 32, 16, 8, 4, 2, 1, 0.5, 0.25, 0.125, […] of a given compound.
(§6) Inoculant suspensions (0.5 μL) were added to the 12 wells of each column. The plates were then covered and incubated at 37° C. overnight for 18 hours.
(§7) For each organism the MIC was determined by identifying the transparent well with the lowest test compound concentration.
(§8) KPC-2 and KPC-3 (Class A, Group 2f, carbapenemases);
(§9) The gene sequence for each beta-lactamase enzyme was synthesized and inserted into the pBC-SK(+) plasmid by GenScript, a commercial service. E. coli J53 was transformed with each plasmid via electroporation and resistant transformants were selected on agar plates containing 50 micrograms/mL ampicillin. The selected transformants were stored at −80 degrees C. in 20% glycerol.

[2] = system: Isogenic E. coli J58 strain carrying KPC-3; details: for MIC: Escherichia coli, 18 h, read-out: Mimimum Inhibitory Concentrations, KPC-3; for Mimimum Inhibitory Concentrations, KPC-3: isogenic E. coli strain, CAMH broth, 20 μM Apo-Transferrin, 37° C., 18 hours
Procedure: as §1, §2, §3, §4, §5, §6, §7, §8, §9

[3] = system: Isogenic E. coli J58 strain carrying TEM-26; details: for MIC: Escherichia coli, 18 h, read-out: Mimimum Inhibitory Concentrations, TEM-26; for Mimimum Inhibitory Concentrations, TEM-26: isogenic E. coli strain, CAMH broth, 20 μM Apo-Transferrin, 37° C., 18 hours
Procedure: as §1, §2, §3, §4, §5, §6, §7
TEM-26 (Group 2be beta-lactamase, hydrolyzes extended spectrum cephalosporins and monobactams), [25];
as §9

[4] = system: Isogenic E. coli J58 strain carrying NDM-1; details: for MIC: Escherichia coli, 18 h, read-out: Mimimum Inhibitory Concentrations, NDM-1; for Mimimum Inhibitory Concentrations, NDM-1: isogenic E. coli strain, CAMH broth, 20 μM Apo-Transferrin, 37° C., 18 hours
Procedure: as §1, §2, §3, §4, §5, §6, §7
NDM-1 (Group 3a carbapenemase, broad spectrum divalent Zn^++ metallo-Beta-Lactamase);
as §9

[5] = system: Isogenic E. coli J58 strain carrying VIM-2; details: for MIC: Escherichia coli, 18 h, read-out: Mimimum Inhibitory Concentrations, VIM-2; for Mimimum Inhibitory Concentrations, VIM-2: isogenic E. coli strain, CAMH broth, 20 μM Apo-Transferrin, 37° C., 18 hours
Procedure: as §1, §2, §3, §4, §5, §6, §7
VIM-2 (Group 3a carbapenemase, metallo-beta-lactamase); and
as §9

[6] = system: Isogenic E. coli J58 strain carrying SHV-1; details: for MIC: Escherichia coli, 18 h, read-out: Mimimum Inhibitory Concentrations, SHV-1; for Mimimum Inhibitory Concentrations, SHV-1: isogenic E. coli strain, CAMH broth, 20 μM Apo-Transferrin, 37° C., 18 hours
Procedure: as §1, §2, §3, §4, §5, §6, §7
SHV-1 (Class A, Group 2b beta-lactamase, hydrolyzes penicillins and early cephalosporins);
as §9

[7] = system: Isogenic E. coli J58 strain carrying CTX-M-14; details: for MIC: Escherichia coli, 18 h, read-out: Mimimum Inhibitory Concentrations, CTX-M-14; for Mimimum Inhibitory Concentrations, CTX-M-14: isogenic E. coli strain, CAMH broth, 20 μM Apo-Transferrin, 37° C., 18 hours
Procedure: as §1, §2, §3, §4, §5, §6, §7
(§10) CTX-M-14 and CTX-M-15 (Class A, Group 2be beta-lactamases, hydrolyzes extended spectrum cephalosporins and monobactams);
as §9

[8] = system: Isogenic E. coli J58 strain carrying CTX-M-15; details: for MIC: Escherichia coli, 18 h, read-out: Mimimum Inhibitory Concentrations, CTX-M-15; for Mimimum Inhibitory Concentrations, CTX-M-15: isogenic E. coli strain, CAMH broth, 20 μM Apo-Transferrin, 37° C., 18 hours
Procedure: as §1, §2, §3, §4, §5, §6, §7, §10, §9

[9] = system: Isogenic E. coli J58 strain carrying IMP-1; details: for MIC: Escherichia coli, 18 h, read-out: Mimimum Inhibitory Concentrations, IMP-1; for Mimimum Inhibitory Concentrations, IMP-1: isogenic E. coli strain, CAMH broth, 20 μM Apo-Transferrin, 37° C., 18 hours
Procedure: as §1, §2, §3, §4, §5, §6, §7
IMP-1 (Group 3a carbapenemase, metallo-beta-Lactamase).
as §9

[10] = system: Isogenic E. coli J58 strain carrying DHA-1; details: for MIC: Escherichia coli, 18 h, read-out: Mimimum Inhibitory Concentrations, DHA-1; for Mimimum Inhibitory Concentrations, DHA-1: isogenic E. coli strain, CAMH broth, 20 μM Apo-Transferrin, 37° C., 18 hours
Procedure: as §1, §2, §3, §4, §5, §6, §7, §9

[11] = system: E. coli J53 Alone; details: for MIC: Escherichia coli, J53ALONE, 18 h, read-out: Mimimum Inhibitory Concentrations, J53 Alone; for Mimimum Inhibitory Concentrations, J53 Alone: CAMH broth, 20 μM Apo-Transferrin, 37° C., 18 hours
Procedure: as §1, §2, §3, §4, §5, §6, §7, §9

COc1cc[n+](Cc2ccc(C=CC3=C(C(=O)O)N4C(=O)[C@@H](NC(=O)/C(=N\OC(C)(C)C(=O)O)c5csc(N)n5)[C@H]4SC3)cc2)cc1OC (mixture of isomers) [Compound 402, 1-(4-((E/Z)-2-((6R,7R)-7-((Z)-2-(2-aminothiazol-4-yl)-2-(((2-carboxypropan-2-yl)oxy)imino)acetamido)-2-carboxy-8-oxo-5-thia-1-azabicyclo[4.2.0]oct-2-en-3-yl)vinyl)benzyl)-3,4-dimethoxypyridin-1-ium]
MIC [1]: 64 µg/mL
MIC [2]: 16 µg/mL
MIC [3]: 4 µg/mL
MIC [4]: > 64 µg/mL
MIC [5]: 4 µg/mL
MIC [6]: 2 µg/mL
MIC [7]: 4 µg/mL
MIC [8]: > 64 µg/mL
MIC [9]: > 64 µg/mL
MIC [10]: 1 µg/mL
MIC [11]: 0.5 µg/mL
Mimimum Inhibitory Concentrations, J53 Alone ([11]; Table 4-2): 0.5 microgram/mL

CC(C)(O/N=C(\C(=O)N[C@@H]1C(=O)N2C(C(=O)O)=C(C=Cc3ccc(C[N+]4(C5CCC5)CCc5ccc(O)c(O)c5C4)cc3)CS[C@H]12)c1csc(N)n1)C(=O)O (mixture of isomers) [Compound 444, 2-(4-((E/Z)-2-((6R,7R)-7-((Z)-2-(2-aminothiazol-4-yl)-2-(((2-carboxypropan-2-yl)oxy)imino)acetamido)-2-carboxy-8-oxo-5-thia-1-azabicyclo[4.2.0]oct-2-en-3-yl)vinyl)benzyl)-2-cyclobutyl-7,8-dihydroxy-1,2,3,4-tetrahydroisoquinolin-2-ium]
Mimimum Inhibitory Concentrations, KPC-2 [1]: 8 microgram/mL
Mimimum Inhibitory Concentrations, KPC-3 [2]: 2 microgram/mL
Mimimum Inhibitory Concentrations, TEM-26 [3]: 0.25 microgram/mL
Mimimum Inhibitory Concentrations, NDM-1 [4]: 32 microgram/mL
MICs for an E. coli strain carrying the gene for NDM-1, in words ([4]; review of Tables 4-1 and 4-2): lower MICS compared to other compounds tested
Mimimum Inhibitory Concentrations, VIM-2 [5]: 0.5 microgram/mL
Mimimum Inhibitory Concentrations, SHV-1 [6]: 1 microgram/mL
Mimimum Inhibitory Concentrations, CTX-M-14 [7]: 0.25 microgram/mL
Mimimum Inhibitory Concentrations, CTX-M-15 [8]: 1 microgram/mL
Mimimum Inhibitory Concentrations, IMP-1 [9]: 0.5 microgram/mL
Mimimum Inhibitory Concentrations, DHA-1 [10]: 1 microgram/mL
Mimimum Inhibitory Concentrations, J53 Alone ([11]; Table 4-1): 0.5 microgram/mL
Mimimum Inhibitory Concentrations, J53 Alone ([11]; Table 4-2): 0.5 microgram/mL

CC(C)(O/N=C(\C(=O)N[C@@H]1C(=O)N2C(C(=O)O)=C(C=Cc3ccc(C[N+]4(C)CCc5cc(O)c(O)cc5C4)cc3[N+](=O)[O-])CS[C@H]12)c1csc(N)n1)C(=O)O (mixture of isomers) [Compound 445, 2-(4-((E/Z)-2-((6R,7R)-7-((Z)-2-(2-aminothiazol-4-yl)-2-(((2-carboxypropan-2-yl)oxy)imino)acetamido)-2-carboxy-8-oxo-5-thia-1-azabicyclo[4.2.0]oct-2-en-3-yl)vinyl)-3-nitrobenzyl)-6,7-dihydroxy-2-methyl-1,2,3,4-tetrahydroisoquinolin-2-ium]
MIC [1]: 64 µg/mL
MIC [2]: 16 µg/mL
MIC [3]: 1 µg/mL
MIC [4]: > 64 µg/mL
MIC [5]: 0.25 µg/mL
MIC [6]: 1 µg/mL
MIC [7]: 4 µg/mL
MIC [8]: 4 µg/mL
MIC [9]: 1 µg/mL
MIC [10]: 1 µg/mL
MIC [11]: 1 µg/mL
Mimimum Inhibitory Concentrations, J53 Alone ([11]; Table 4-2): 1 microgram/mL

CO/N=C(\C(=O)N[C@@H]1C(=O)N2C(C(=O)O)=C(C=Cc3ccc(C[n+]4ccc(OC)c(OC)c4)cc3[N+](=O)[O-])CS[C@H]12)c1csc(N)n1 (mixture of isomers) [Compound 392, 1-(4-((E/Z)-2-((6R,7R)-7-((Z)-2-(2-aminothiazol-4-yl)-2-(methoxyimino)acetamido)-2-carboxy-8-oxo-5-thia-1-azabicyclo[4.2.0]oct-2-en-3-yl)vinyl)-3-nitrobenzyl)-3,4-dimethoxypyridin-1-ium]
Mimimum Inhibitory Concentrations, KPC-2 [1]: >64 microgram/mL
Mimimum Inhibitory Concentrations, KPC-3 [2]: >64 microgram/mL
Mimimum Inhibitory Concentrations, TEM-26 [3]: 32 microgram/mL
Mimimum Inhibitory Concentrations, NDM-1 [4]: >64 microgram/mL
Mimimum Inhibitory Concentrations, VIM-2 [5]: >64 microgram/mL
Mimimum Inhibitory Concentrations, SHV-1 [6]: >64 microgram/mL
Mimimum Inhibitory Concentrations, CTX-M-14 [7]: >64 microgram/mL
Mimimum Inhibitory Concentrations, CTX-M-15 [8]: >64 microgram/mL
Mimimum Inhibitory Concentrations, IMP-1 [9]: >64 microgram/mL
Mimimum Inhibitory Concentrations, DHA-1 [10]: >64 microgram/mL
Mimimum Inhibitory Concentrations, J53 Alone ([11]; Table 4-1): 64 microgram/mL
Mimimum Inhibitory Concentrations, J53 Alone ([11]; Table 4-2): 64 microgram/mL

CC(C)(O/N=C(\C(=O)N[C@@H]1C(=O)N2C(C(=O)O)=C(C=Cc3ccc(C[n+]4ccc(O)c(O)c4)cc3)CS[C@H]12)c1csc(N)n1)C(=O)O (mixture of isomers) [Compound 443, 1-(4-((E/Z)-2-((6R,7R)-7-((Z)-2-(2-aminothiazol-4-yl)-2-(((2-carboxypropan-2-yl)oxy)imino)acetamido)-2-carboxy-8-oxo-5-thia-1-azabicyclo[4.2.0]oct-2-en-3-yl)vinyl)benzyl)-3,4-dihydroxypyridin-1-ium]
Mimimum Inhibitory Concentrations, KPC-2 [1]: 8 microgram/mL
Mimimum Inhibitory Concentrations, KPC-3 [2]: 4 microgram/mL
Mimimum Inhibitory Concentrations, TEM-26 [3]: 2 microgram/mL
Mimimum Inhibitory Concentrations, NDM-1 [4]: >64 microgram/mL
Mimimum Inhibitory Concentrations, VIM-2 [5]: 0.25 microgram/mL
Mimimum Inhibitory Concentrations, SHV-1 [6]: 1 microgram/mL
Mimimum Inhibitory Concentrations, CTX-M-14 [7]: 0.25 microgram/mL
Mimimum Inhibitory Concentrations, CTX-M-15 [8]: 1 microgram/mL
Mimimum Inhibitory Concentrations, IMP-1 [9]: 4 microgram/mL
Mimimum Inhibitory Concentrations, DHA-1 [10]: 1 microgram/mL
Mimimum Inhibitory Concentrations, J53 Alone ([11]; Table 4-1): 0.13 microgram/mL
Mimimum Inhibitory Concentrations, J53 Alone ([11]; Table 4-2): 0.13 microgram/mL

Reference: patent US20190100534A1, “Cephem Compounds with Latent Reactive Groups” (Gladius Pharmaceuticals, Inc., priority 2017, published 2019)
